Reference: PubChem BioAssay (NCI)
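1) Cells in 96-well plates. 2) Compound, 48 h, 5 concentrations. 3) Linear interpolation between surrounding doses. 4) Unreached endpoint = highest concentration. GI50 is the concentration that inhibits growth by half. TGI is the concentration that stops growth completely.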

Legend:
Experiment in all cases: inhibition of tumour cell growth, NCI panel, 48 h
[1] = tested on: SK-MEL-28 melanoma
[2] = tested on: UACC-257 melanoma
[3] = tested on: CAKI-1 renal
[4] = tested on: T-47D breast
[5] = tested on: NCI-H522 lung
[6] = tested on: HCT-116 colon
[7] = tested on: IGROV1 ovarian
[8] = tested on: OVCAR-3 ovarian
[9] = tested on: SK-MEL-2 melanoma
[10] = tested on: A549 NSCLC

## O=C(/C=C1\C[C@H]2C=Nc3ccccc3C(=O)N2C1)NCCCCCNC(=O)/C=C1\C[C@H]2C=Nc3ccccc3C(=O)N2C1
[1]
  TGI: 27.4 µM
[2]
  TGI: 15.7 µM
[3]
  TGI: 6.38 µM
[4]
  TGI: 15.7 µM
[5]
  TGI: 2.51 µM
[6]
  TGI: 20.1 µM
[7]
  TGI: 23.1 µM
[8]
  TGI: 14.2 µM
[9]
  TGI: 29.2 µM
[10]
  TGI: 54.6 µM

## Nc1n[nH]c2ccccc12
[1]
  TGI: > 100 µM
[2]
  TGI: > 100 µM
[3]
  TGI: > 100 µM
[4]
  TGI: > 100 µM
[5]
  TGI: > 100 µM
[6]
  TGI: > 100 µM
[7]
  TGI: > 100 µM
[8]
  TGI: > 100 µM
[9]
  TGI: > 100 µM
[10]
  TGI: > 100 µM

## COc1cc2c3c(n(C)c(=O)c2cc1OC)-c1cc2c(cc1/C3=C/CCCCBr)OCO2
[1]
  TGI: > 100 µM
[2]
  TGI: > 100 µM
[3]
  TGI: > 100 µM
[4]
  TGI: > 100 µM
[5]
  TGI: > 100 µM
[6]
  GI50: 9.47 µM
  TGI: > 100 µM
[7]
  TGI: > 100 µM
[8]
  GI50: > 100 µM
  TGI: > 100 µM
[9]
  TGI: > 100 µM
[10]
  TGI: > 100 µM
